Results on 8 compounds are retold here after publication PMC9055250, “Design, synthesis, and biological evaluation of new 6,N^2-diaryl-1,3,5-triazine-2,4-diamines as anticancer agents selectively targeting triple negative breast cancer cells” (RSC Advances, 2020).

Series [1] deals with MDA-MB231 breast cancer cells. The experiment in a line: MTT in vitro cytotoxicity assay, MDA-MB231. The class given is cell-based. Particulars: Homo sapiens, MDA-MB-231; for viability at 10 µM: read-out: Cell viability (%) MDA-MB231. The procedure: (§1) The synthesized compounds were tested against three breast tumor cell lines (MDA-MB231, SKBR-3 and MCF-7) and epithelial breast cell line (MCF-10A) by the MTT colorimetric assay.[29,30] All cells were obtained from the American Type Culture Collection. The cancerous cell lines were grown in Dulbecco's modified eagle medium (DMEM) supplemented with 10% fetal bovine serum (FBS) and 1% pen-strep antibiotic. The MCF-10A human epithelial breast cell line was grown in the complete mammary epithelial growth medium containing horse serum 5%, epithelial growth factor 20 ng mL^−1, hydrocortisone […], cholera toxin 100 ng mL^−1, insulin 10 μg mL^−1, and pen-step antibiotic.[31] For the cytotoxic assay, 20 to 75 × 10^3 cells per mL (based on the doubling time for each cell line) were seeded in 96-well plates and the plates were incubated overnight in a humidified air atmosphere at 37 °C in 5% CO2 incubator.
(§2) The cells were then treated with compounds at different concentrations. After 72 h of incubation, the MTT (0.5 mg mL^−1) was added to wells, followed by 4 h of incubation. The culture medium was then removed and DMSO (100 μL per well) was added and the absorbance values were measured at 570 nm using the multi-well Tecan NanoQuant, Infinite m200 Pro plate reader. Growth inhibitory values (GI50) were calculated using GraphPad Prism 7 (GraphPad Software, San Diego, USA) by nonlinear regression analysis. Three independent experiments were carried out and the data was expressed in mean ± standard deviation (SD). The concentration–response curves used for the GI50 calculation are available in ESI. ^†

The subject of series [2] is SKBR-3 breast cancer cells. Kind of series: MTT in vitro cytotoxicity assay, SKBR-3. It counts as cell-based. The settings on record: Homo sapiens; for viability at 10 µM: SK-BR-3, 10 μM, 72 h, read-out: Cell viability (%) SKBR-3; for GI50: SK-BR-3, 72 h, read-out: GI50 ± SD SKBR-3. The method, then:
as §1, §2

Series [3] concerns MCF-7 breast cancer cells. The experiment in a line: MTT in vitro cytotoxicity assay, MCF-7. The class given is cell-based. The settings on record: Homo sapiens; for viability at 10 µM: MCF7, 10 μM, 72 h, read-out: Cell viability (%) MCF-7; for GI50: MCF7, 72 h, read-out: GI50 ± SD MCF-7. The procedure: as §1, §2
Series [4] relates to MCF-10A human epithelial breast cell line. Kind of series: MTT in vitro cytotoxicity assay, MCF-10A. The class given is cell-based. Particulars: 72 h, read-out: GI50 ± SD MCF-10A. The method, then: as §1, §2
[5] abbreviates: 72 h, MTT, read-out: GI50 ± SD MDA-MB231.
[6] abbreviates: MDA-MB231, calculated from GI50, read-out: Experimental pGI50 (converted).

Read-outs that look alike come from different tables or passages of the source.

For the compound `COc1ccccc1Nc1nc(N)nc(-c2cccc(F)c2)n1` [Compound 1, 6-(3-Fluorophenyl)-N^2-(2-methoxyphenyl)-1,3,5-triazine-2,4-diamine], the melting point (commonly the temperature of the solid-liquid transition) fell in the range of 140 to 142 °C. In series [1] (72 h, MTT), the viability (usually a read-out of living cells in per cent, often relative to untreated cells) at 10 µM was 49%. Further, the GI50 in series [1] (setting [5]) amounted to 17.3 ± 0.6 µM. Moreover, the GI50 in series [1] (setting [6]) was 17.4 µM. Further, in series [2], the viability at 10 µM worked out at 84% and the GI50 is over 20 µM. In series [3], the viability at 10 µM stood at 88% and the GI50 is over 20 µM. In addition, the GI50 in series [4] was over 20 µM.
Take `Cc1ccc(Nc2nc(N)nc(-c3ccc(Cl)cc3)n2)cc1` [Compound 2, 6-(4-Chlorophenyl)-N^2-(4-methylphenyl)-1,3,5-triazine-2,4-diamine]: the melting point is 179 to 181 °C. Besides, the viability at 10 µM in series [1] (72 h, MTT) was determined as 29%. Besides, in series [1] (setting [5]), the GI50 amounted to 13.8 ± 1.9 µM. Moreover, the GI50 in series [1] (setting [6]) was 13.8 µM. For the same compound, in series [2], the viability at 10 µM was found to be 85% and the GI50 is over 20 µM. Also, in series [3], the viability at 10 µM turned out to be 100% and the GI50 is over 20 µM. Moreover, the GI50 in series [4] is over 20 µM.
`Nc1nc(Nc2ccccc2Cl)nc(-c2ccc(C(F)(F)F)cc2)n1` [Compound 3, N ^2-(2-Chlorophenyl)-6-(4-(trifluoromethyl)phenyl)-1,3,5-triazine-2,4-diamine] displayed a melting point of 165 to 167 °C. Also, the viability at 10 µM in series [1] (72 h, MTT) was 49%. Moreover, in series [1] (setting [5]), the GI50 worked out at 13.7 ± 0.6 µM. For the same compound, the GI50 in series [1] (setting [6]) is 13.8 µM. Also, in series [2], the viability at 10 µM was 83% and the GI50 is 17.7 ± 1.4 µM. Also, in series [3], the viability at 10 µM stood at 96% and the GI50 is over 20 µM. Further, the GI50 in series [4] was over 20 µM.
Compound `Nc1nc(Nc2ccc(Cl)cc2)nc(-c2ccc(OC(F)(F)F)cc2)n1` [Compound 4, N ^2-(4-Chlorophenyl)-6-(4-(trifluoromethoxy)phenyl)-1,3,5-triazine-2,4-diamine] yielded a melting point of 201 to 203 °C. In series [1] (72 h, MTT), the viability at 10 µM was 34%. Moreover, the GI50 in series [1] (setting [5]) worked out at 16.7 ± 1.2 µM. In addition, the GI50 in series [1] (setting [6]) is 16.6 µM. In series [2], the viability at 10 µM was determined as 86% and the GI50 is over 20 µM. Further, in series [3], the viability at 10 µM was 95% and the GI50 is over 20 µM. For the same compound, the GI50 in series [4] was over 20 µM.
For `CN(C)c1ccc(-c2nc(N)nc(Nc3ccccc3Cl)n2)cc1` [Compound 5, N ^2-(2-Chlorophenyl)-6-(4-(dimethylamino)phenyl)-1,3,5-triazine-2,4-diamine], the melting point was 191 to 193 °C. In series [1] (72 h, MTT), the viability at 10 µM stood at 28%. Moreover, the GI50 in series [1] (setting [5]) was 0.1 ± 0.001 µM. Also, the GI50 in series [1] (setting [6]) is 0.1 µM. Also, in series [2], the viability at 10 µM stood at 55% and the GI50 worked out at 0.4 ± 0.04 µM. Further, in series [3], the viability at 10 µM stood at 86% and the GI50 was over 20 µM. Moreover, the GI50 in series [4] is over 20 µM.
Regarding `Cc1ccc(-c2nc(N)nc(Nc3ccccc3Cl)n2)cc1` [Compound 6, N ^2-(2-Chlorophenyl)-6-(4-methylphenyl)-1,3,5-triazine-2,4-diamine], the melting point lay in the range of 146 to 148 °C. The viability at 10 µM in series [1] (72 h, MTT) was found to be 36%. Moreover, the GI50 in series [1] (setting [5]) turned out to be 3.8 ± 0.4 µM. Besides, the GI50 in series [1] (setting [6]) is 3.8 µM. For the same compound, in series [2], the viability at 10 µM is 80% and the GI50 was over 20 µM. For the same compound, in series [3], the viability at 10 µM was 51% and the GI50 was 10.7 ± 1 µM. Besides, the GI50 in series [4] was over 20 µM.
Take `CN(Cc1cnc2nc(N)nc(N)c2n1)c1ccc(C(=O)N[C@@H](CCC(=O)O)C(=O)O)cc1` [Methotrexate, reference compound]: the GI50 turned out to be 0.01 ± 0.001 µM in series [1] (setting [5]) and 5.8 ± 0.5 µM in series [3].
In the case of `Cc1cn(-c2cc(NC(=O)c3ccc(C)c(Nc4nccc(-c5cccnc5)n4)c3)cc(C(F)(F)F)c2)cn1` [Nilotinib, reference compound], the GI50 in series [1] (setting [5]) worked out at 0.04 ± 0.001 µM; in series [2] it was 9.6 ± 0.5 µM.
